According to patent US20230183237A1, “COMPETITIVE AND NONCOMPETITIVE INHIBITORS OF THE MUSCARINIC ACETYLCHOLINE RECEPTOR M5” (Vanderbilt University, priority 2020, published 2023):
Read-outs that look alike come from different tables or passages of the source.

Target: T1, hM5 (Homo sapiens, UniProt P08912)
T1 construct: expressed in transfected cells
T1 sequence (P08912 1-532): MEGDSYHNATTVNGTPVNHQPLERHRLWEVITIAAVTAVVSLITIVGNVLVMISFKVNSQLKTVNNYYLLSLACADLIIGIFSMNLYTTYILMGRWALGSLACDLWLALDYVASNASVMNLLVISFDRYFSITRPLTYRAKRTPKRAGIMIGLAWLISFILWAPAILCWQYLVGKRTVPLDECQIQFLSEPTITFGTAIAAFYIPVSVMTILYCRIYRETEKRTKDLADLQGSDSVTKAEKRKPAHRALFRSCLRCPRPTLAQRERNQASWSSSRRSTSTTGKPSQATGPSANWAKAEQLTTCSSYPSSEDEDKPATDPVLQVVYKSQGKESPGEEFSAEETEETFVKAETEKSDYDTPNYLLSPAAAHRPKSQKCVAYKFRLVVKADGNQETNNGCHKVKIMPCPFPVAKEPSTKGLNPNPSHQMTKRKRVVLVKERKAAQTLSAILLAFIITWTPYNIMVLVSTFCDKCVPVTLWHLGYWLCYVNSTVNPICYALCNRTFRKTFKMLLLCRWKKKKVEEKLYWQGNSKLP
Assay: Calcium mobilization concentration-response (IC50 vs EC80 acetylcholine), CHO hM5
Format: cell-based
Settings: CELL LINE hM5, read-out: IC50
Procedure, shortened: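 CHO cells stably expressing hM5, dye-loaded, in HBSS/20 mM HEPES/2.5 mM probenecid, pH 7.4. Compounds were pre-incubated 140 s before an EC80 acetylcholine challenge, with calcium flux read kinetically.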

[1] = calcium mobilization, EC80 acetylcholine addition

Row | IC50 [1] | IC50 (vs EC80 acetylcholine) | Structure (SMILES)
1 | > 10000 nM | – | O=S(=O)(c1ccc2ncsc2c1)N1CCC(c2cc3[nH]ncc3cn2)CC1 [Compound 19, 6-((4-(1H-pyrazolo[4,3-c]pyridin-6-yl)piperidin-1-yl)sulfonyl)benzo[d]thiazole]
2 | > 10000 nM | – | Cc1cc(C#N)ncc1C1=CCN(S(=O)(=O)c2ccc3c(c2)CCO3)CC1 [Compound 240, 1′-((2,3-dihydrobenzofuran-5-yl)sulfonyl)-4-methyl-1′,2′,3′,6-tetrahydro-[3,4′-bipyridine]-6-carbonitrile]
3 | – | 414 nM | Cn1ncc(S(=O)(=O)N2CCC(c3cn4ncnc4cc3C(F)F)CC2)c1CC#N [Compound 456, 2-(4-((4-(7-(difluoromethyl)-[1,2,4]triazolo[1,5-a]pyridin-6-yl)piperidin-1-yl)sulfonyl)-1-methyl-1H-pyrazol-5-yl)acetonitrile]
4 | > 10000 nM | – | Cc1nc(C)c(S(=O)(=O)N2CCC(c3nn4ncnc4cc3C)CC2)s1 [Compound 215, 2,4-dimethyl-5-((4-(7-methyl-[1,2,4]triazolo[1,5-b]pyridazin-6-yl)piperidin-1-yl)sulfonyl)thiazole]
5 | – | 26 nM | Cc1c(C2CCN(S(=O)(=O)c3cnn(C)c3C#N)CC2)cn2ncnc2c1F [Compound 438, 4-((4-(8-flooro-7-methyl-[1,2,4]triazolo[1,5-a]pyridin-6-yl)piperidin-1-yl)sulfonyl)-1-methyl-1H-pyrazole-5-carbonitrile]
6 | 57 nM | – | O=S(=O)(c1cnn2c1NCCC2)N1CCC(c2cn3ncnc3cc2F)CC1 [Compound 253, 7-fluoro-6-(1-((4,5,6,7-tetrahydropyrazolo[1,5-a]pyrimidin-3-yl)sulfonyl)piperidin-4-yl)-[1,2,4]triazolo[1,5-a]pyridine]
7 | > 10000 nM | – | O=S(=O)(c1ccc2c(c1)CCO2)N1CCC(c2ccc3occc3n2)CC1 [Compound 28, 5-(1-((2,3-dihydrobenzofuran-5-yl)sulfonyl)piperidin-4-yl)furo[3,2-b]pyridine]
8 | 53 nM | – | [2H]C([2H])([2H])n1cc(S(=O)(=O)N2CCC(c3cn4ncnc4cc3C)CC2)c(Cl)n1 [Compound 256, 6-(1-((3-chloro-1-(methyl-d3)-1H-pyrazol-4-yl)sulfonyl)piperidin-4-yl)-7-methyl-[1,2,4]triazolo[1,5-a]pyridine]
9 | > 10000 nM | – | Cc1nn(C(F)F)cc1S(=O)(=O)N1CCC(c2cn3ncnc3cc2C(F)(F)F)CC1 [Compound 276, 6-(1-((1-(difluoromethyl)-3-methyl-1H-pyrazol-4-yl)sulfonyl)piperidin-4-yl)-7-(trifluoromethyl)-[1,2,4]triazolo[1,5-a]pyridine]
10 | – | 18 nM | [2H]C([2H])([2H])Oc1c(S(=O)(=O)N2CCC(c3cn4ncnc4cc3C)CC2)cnn1C [Compound 612, 6-(1-((5-(methoxy-d3)-1-methyl-1H-pyrazol-4-yl)sulfonyl)piperidin-4-yl)-7-methyl-[1,2,4]triazolo[1,5-a]pyridine]
11 | 6900 nM | – | Cc1ncc(S(=O)(=O)N2CC=C(c3cn4nc(C(F)F)nc4cc3C)CC2)s1 [Compound 317, 5-((4-(2-(Difluoromethyl)-7-methyl-[1,2,4]triazolo[1,5-a]pyridin-6-yl)-3,6-dihydropyridin-1(2H)-yl)sulfonyl)-2methylthiazole]
12 | 208 nM | – | Cc1c(C2CCN(S(=O)(=O)c3ccc4c(c3)CCO4)CC2)cn2ncnc2c1F [Compound 267, 6-(1-((2,3-dihydrobenzofuran-5-yl)sulfonyl)piperidin-4-yl)-8-fluoro-7-methyl-[1,2,4]triazolo[1,5-a]pyridine]
13 | – | 133 nM | Cc1cc2ncnn2nc1C1CCN(S(=O)(=O)c2cnc3sccn23)CC1 [Compound 535, 5-((4-(7-methyl-[1,2,4]triazolo[1,5-b]pyridazin-6-yl)piperidin-1-yl)sulfonyl)imidazo[2,1-b]thiazole]
14 | > 10000 nM | – | Cc1sc(C(N)=O)nc1C1CCN(S(=O)(=O)c2ccc3c(c2)CCO3)CC1 [Compound 211, 4-(1-((2,3-dihydrobenzofuran-5-yl)sulfonyl)piperidin-4-yl)-5-methylthiazole-2-carboxamide]
15 | – | 96 nM | [2H]C1([2H])CC(c2cn3ncnc3cc2F)CC([2H])([2H])N1S(=O)(=O)c1c(C)nn(C)c1Cl [Compound 475, 6-(1-((5-chloro-1,3-dimethyl-1H-pyrazol-4-yl)sulfonyl)piperidin-4-yl-2,2,6,6-d4)-7-fluoro-[1,2,4]triazolo[1,5-a]pyridine]
16 | – | > 10000 nM | Cn1cnnc1S(=O)(=O)N1CCC(c2cn3ncnc3cc2C(F)(F)F)CC1 [Compound 520, 6-(1-((4-methyl-4H-1,2,4-triazol-3-yl)sulfonyl)piperidin-4-yl)-7-(trifluoromethyl)-[1,2,4]triazolo[1,5-a]pyridine]

Row | IC50 [1] | IC50 (vs EC80 acetylcholine) | Structure (SMILES)
17 | > 10000 nM | – | Cc1cc2ncnn2cc1C1=CCN(S(=O)(=O)c2ccc3c(c2)C(C)(C)CO3)CC1 [Compound 64, 6-(1-((3,3-dimethyl-2,3-dihydrobenzofuran-5-yl)sulfonyl)-1,2,3,6-tetrahydropyridin-4-yl)-7-methyl-[1,2,4]triazolo[1,5-a]pyridine]
18 | > 10000 nM | – | Cc1cc2nncn2cc1C1CCN(S(=O)(=O)c2cc3c(cc2F)OCC3)CC1 [Compound 51, 6-(1-((6-fluoro-2,3-dihydrobenzofuran-5-yl)sulfonyl)piperidin-4-yl)-7-methyl-[1,2,4]triazolo[4,3-a]pyridine]
19 | 113 nM | – | O=S(=O)(c1cnn2c1OCCC2)N1CCC(c2ccc3ncnn3c2)CC1 [Compound 387, 3-((4-([1,2,4]triazolo[1,5-a]pyridin-6-yl)piperidin-1-yl)sulfonyl)-6,7-dihydro-5H-pyrazolo[5,1-b][1,3]oxazine]
20 | 518 nM | – | Cc1cc2ncnn2cc1C1=CCN(S(=O)(=O)c2ccc3c(c2)CCO3)CC1 [Compound 35, 6-(1-((2,3-dihydrobenzofuran-5-yl)sulfonyl)-1,2,3,6-tetrahydropyridin-4-yl)-7-methyl-[1,2,4]triazolo[1,5-a]pyridine]
21 | > 10000 nM | – | O=S(=O)(c1cnn2c1CCCC2)N1CCC(c2ccncc2)CC1 [Compound 368, 3-((4-(pyridin-4-yl)piperidin-1-yl)sulfonyl)-4,5,6,7-tetrahydropyrazolo[1,5-a]pyridine]
22 | 164 nM | – | O=S(=O)(c1cnc2ccccn12)N1CCC(c2cn3ncnc3cc2C(F)(F)F)CC1 [Compound 338, 6-(1-(imidazo[1,2-a]pyridin-3-yl)sulfonyl)piperidin-4-yl)-7-(trifluoromethyl_-[1,2,4]triazolo[1,5-a]pyridine]
23 | 18 nM | – | O=S(=O)(c1c(Cl)nc2sccn12)N1CCC(c2cn3ncnc3cc2Cl)CC1 [Compound 344, 6-chloro-5-((4-(7-chloro-[1,2,4]triazolo[1,5-a]pyridin-6-yl)piperidin-1-yl)sulfonyl)imidazo[2,1-b]thiazole]
24 | – | 7 nM | Cc1cc(N(C)C)ncc1C1CCN(S(=O)(=O)c2cnn(C)c2Cl)CC1 [Compound 551, 5-(1-((5-chloro-1-methyl-1H-pyrazol-4-yl)sulfonyl)piperidin-4-yl)-N,N,4-trimethylpyridin-2-amine]
25 | 5200 nM | – | Cn1cc(S(=O)(=O)N2CCC(c3cn4ncnc4cc3C(F)(F)F)CC2)c(C(F)(F)F)n1 [Compound 99, 6-(1-((1-methyl-3-(trifluoromethyl)-1H-pyrazol-4-yl)sulfonyl)piperidin-4-yl)-7-(trifluoromethyl)-[1,2,4]triazolo[1,5-a]pyridine]
26 | 205 nM | – | Cc1cc2ncnn2cc1C1CCN(S(=O)(=O)c2c(F)cc3c(c2F)C(C)CO3)CC1 (centres unmarked) [Compound 116, 6-(1-((4,6-difluoro-3-methyl-2,3-dihydrobenzofuran-5-yl)sulfonyl)piperidin-4-yl)-7-methyl-[1,2,4]triazolo[1,5-a]pyridine]
27 | – | 6 nM | COc1c(S(=O)(=O)N2CCC(c3cn4ncnc4cc3Cl)CC2)cnn1C [Compound 575, 7-chloro-6-(1-((5-methoxy-1-methyl-1H-pyrazol-4-yl)sulfonyl)piperidin-4-yl)-[1,2,4]triazolo[1,5-a]pyridine]
28 | 13 nM | – | Cc1cc2c(cc1C1CCN(S(=O)(=O)c3cnc(C)n3C)CC1)OCO2 [Compound 373, 1-((1,2-dimethyl-1H-imidazol-5-yl)sulfonyl)-4-(6-methylbenzo[d][1,3]dioxol-5-yl)piperidine]
29 | 235 nM | – | Cc1cc2ncnn2cc1C1CCN(S(=O)(=O)c2cnc3c(c2)C(C)CO3)CC1 (centres unmarked) [Compound 136, 3-methyl-5-((4-(7-methyl-[1,2,4]triazolo[1,5-a]pyridin-6-yl)piperidin-1-yl)sulfonyl)-2,3-dihydrofuro[2,3-b]pyridine]
30 | 28 nM | – | [2H]C([2H])([2H])n1ncc(S(=O)(=O)N2CCC(c3cn4ncnc4cc3C)CC2)c1C1CC1 [Compound 131, 6-(1-((5-cyclopropyl-1-(methyl-d3)-1H-pyrazol-4-yl)sulfonyl)piperidin-4-yl)-7-methyl-[1,2,4]triazolo[1,5-a]pyridine]
31 | > 10000 nM | – | Cc1cc2nccn2nc1C1CCN(S(=O)(=O)c2ccc3c(c2)OCO3)CC1 [Compound 40, 6-(1-(benzo[d][1,3]dioxol-5-ylsulfonyl)piperidin-4-yl)-7-methylimidazo[1,2-b]pyridazine]
32 | > 10000 nM | – | Cc1cc2ncnn2cc1C1CCN(S(=O)(=O)c2ccccc2F)CC1 [Compound 97, 6-(1-((2-fluorophenyl)sulfonyl)piperidin-4-yl)-7-methyl-[1,2,4]triazolo[1,5-a]pyridine]
